Source: publication PMC12114510, “Antimicrobial, Antioxidant, and α-Glucosidase-Inhibitory Activities of Prenylated p-Hydroxybenzoic Acid Derivatives from Oberonia ensiformis” (Molecules, 2025)
Counter-ions that a name gives are not always drawn.

Key:
[1] = system: α-glucosidase; test: α-Glucosidase inhibition assay (PNPG method); format: biochemical; settings: for IC50, inhibition of α-glucosidase: mean ± SD, PNPG method, 5 and 6 tested as epimeric mixtures
Experimental: The inhibitory activity of the obtained compounds on α-glucosidase was evaluated using the method mentioned in previous studies with minor modifications. […] Subsequently, 50 μL of 5.0 mM p-Nitrophenyl α-D-glucopyranoside (pNPG, dissolved in 0.1 M PB, pH 6.8) was added to the mixture. After incubation at 37 °C for 30 min, the reaction was stopped by adding 80 μL of 0.2 M sodium carbonate solution (dissolved in ultrapure water) to the reaction system. The absorbance value was measured at 405 nm using a microplate reader. […] Ac: Absorbance of the reaction system containing 20 μL PBS, 50 μL α-glucosidase, and 50 μL pNPG.

[2] = DPPH radical scavenging (antioxidant) assay; settings: for IC50, clearance rate of DPPH: mean ± SD, 5 and 6 tested as epimeric mixtures
Experimental: The activity screening of 18 compounds isolated from O. ensiformis was carried out using 96-well plates and an enzyme labeler with DPPH methanol solution as substrate (0.15 mmol/L) and sodium ascorbate as positive control. The gradient mass concentration of the samples to be tested was 200, 100, 50, 25, 12.5 μg/mL and then divided into a sample group (100 μL DPPH solution + 100 μL sample, A), a sample control group (100 μL methanol + 100 μL sample, A0), and a negative control (100 μL DPPH solution + 100 μL methanol, A1). The samples to be tested were fully reacted under light-avoiding conditions, and the OD values were determined at 517 nm after 30 min [23]. The experiments were performed three times in parallel, and the DPPH radical scavenging rate was calculated. The scavenging rate of DPPH radical was calculated according to the following equation [24].E = [1 − (A − Aa)/Ab] × 100% A:100 μL of test compounds or L-Ascorbic Acid Sodium Salt and 100 μL of DPPH. Aa: 100 μL of test compounds or L-Ascorbic Acid Sodium Salt and 100 μL of MeOH. Ab: 100 μL of MeOH and 100 μL of DPPH.

Row | SMILES | inhibitory activity against α-glucosidase (in words) [1] | IC50, inhibition of α-glucosidase [1] | DPPH radical scavenging activity [2] | IC50, clearance rate of DPPH [2]
1 | C=C(C)C(O)Cc1cc(C(=O)OC(C)C(C)(O)C(=O)O)cc(CC=C(C)C)c1O (centres unmarked) [Compound 5, Oberoniaensiformisin E] | weak | 106.10 ± 2.12 µg/mL |  | 
2 | C=C(C)C(O)Cc1cc(C(=O)O[C@@H]2CC(C(=O)O)=C[C@@H](O)[C@H]2O)cc(CC=C(C)C)c1O (some centres unmarked) [Compound 6, oberoniaensiformisin F] | moderate | 58.07 ± 6.22 µg/mL | > 50% | 173.76 ± 23.92 µg/mL
3 | C=C(C)C(O)Cc1cc(C(=O)O)cc2c1OC(C)(C)C=C2 (centres unmarked) [Compound 10, liparacid A] | no significant activity |  |  | 
4 | C=C(C)C(O)Cc1cc(C(=O)O)cc(CCC(C)(C)O)c1O (centres unmarked) [Compound 11, oberoniamyosurusin E] | no significant activity |  |  | 
5 | CC(C)=CCc1cc(C(=O)O)cc(CC=C(C)C)c1O [Compound 12, nervogenic acid] | strong | 34.03 ± 0.16 µg/mL | > 50% | 185.36 ± 1.96 µg/mL
6 | CC(C)=CCc1cc(C(=O)O[C@@H]2CC(C(=O)O)=C[C@@H](O)[C@H]2O)cc2c1OC(C)(C)C=C2 [Compound 13, oberoniamyosurusin L] | moderate | 86.53 ± 1.08 µg/mL |  | 
7 | CC(C)=CCc1cc(C(=O)O)cc2c1OC(C(C)(C)O)C2 (centres unmarked) [Compound 15, oberoniamyosurusins I] | strong | 38.80 ± 4.43 µg/mL |  | 
8 | CC(C)(O)CCc1cc(C(=O)O)cc2c1OC(C)(C)C=C2 [Compound 16, 1iparacids C] | no significant activity |  |  | 
9 | CC(C)(O)CCc1cc(C(=O)O)cc(CCC(C)(C)O)c1O [Compound 17, oberoniamyosurusin F] | no significant activity |  |  | 
10 | C=C(C)C(O)Cc1cc(C(=O)O)cc(CC(O)C(=C)C)c1O (centres unmarked) [Compound 18, liparacid B] | no significant activity |  |  | 
11 | O=C1O[C@H]([C@@H](O)CO)C(O)=C1O [L-ascorbate, L-Ascorbic Acid Sodium Salt, reference compound] |  |  |  | 2.37 ± 0.11 µg/mL
